Bounds are passed on as bounds.

The target in data set [1] is T1, Kinesin-like protein KIF18A (Homo sapiens, UniProt Q8NI77).
T1 sequence (Q8NI77 whole entry): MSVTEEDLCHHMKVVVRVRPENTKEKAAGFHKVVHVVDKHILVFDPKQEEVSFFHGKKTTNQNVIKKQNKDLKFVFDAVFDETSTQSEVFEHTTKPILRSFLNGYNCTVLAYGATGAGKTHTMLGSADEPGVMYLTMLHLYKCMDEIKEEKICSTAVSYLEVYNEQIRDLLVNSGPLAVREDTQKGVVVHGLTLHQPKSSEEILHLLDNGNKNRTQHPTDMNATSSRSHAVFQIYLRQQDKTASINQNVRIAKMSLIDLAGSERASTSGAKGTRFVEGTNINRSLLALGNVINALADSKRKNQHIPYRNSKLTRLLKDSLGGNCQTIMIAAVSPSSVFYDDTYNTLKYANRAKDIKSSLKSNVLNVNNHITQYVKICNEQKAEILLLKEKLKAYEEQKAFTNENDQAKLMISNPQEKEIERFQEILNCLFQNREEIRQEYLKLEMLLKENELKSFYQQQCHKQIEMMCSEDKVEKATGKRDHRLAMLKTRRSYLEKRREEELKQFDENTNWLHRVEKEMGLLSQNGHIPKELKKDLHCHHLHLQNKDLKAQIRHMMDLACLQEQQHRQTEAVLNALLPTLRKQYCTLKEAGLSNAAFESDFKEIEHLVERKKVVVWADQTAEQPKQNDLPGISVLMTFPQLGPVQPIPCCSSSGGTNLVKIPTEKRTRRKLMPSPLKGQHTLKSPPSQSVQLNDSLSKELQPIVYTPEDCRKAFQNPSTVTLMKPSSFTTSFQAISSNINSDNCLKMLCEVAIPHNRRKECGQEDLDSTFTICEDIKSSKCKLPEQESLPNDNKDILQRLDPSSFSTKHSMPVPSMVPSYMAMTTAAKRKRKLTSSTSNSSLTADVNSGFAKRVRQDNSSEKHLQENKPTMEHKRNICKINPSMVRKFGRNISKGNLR
Kind of data set: Inhibition of recombinant His-tagged human KIF18A (1 to 467 residues) expressed in Trichoplusia ni insect cells assessed as inhibition of microtubule-stimulated ATPase activity preincubated for 30 mins followed by ATP addition and further incubated for 15 mins by ADP-Glo reagent based assay. Set-up: species or system Insect cell. (ADP-Glo first removes unused ATP, then detects ADP through luciferase.)

Data set [2] is described as follows: Metabolic stability in mouse liver microsomes assessed as intrinsic clearance at 0.5 uM incubated upto 40 mins by LCMS analysis. The format is ADME, Microsome. The settings on record: read-out: CLH. On the technique in general: Liver microsomes are a subcellular fraction often used to study metabolism.
Data set [3] in a line: Metabolic stability in human liver microsomes assessed as intrinsic clearance at 0.5 uM incubated upto 40 mins by LCMS analysis. The settings on record: read-out: CLH. In kind it is ADME, Microsome.
Data set [4] relates to OVCAR-3. Kind of data set: Induction of mitotic arrest in human OVCAR-3 cells assessed as p-histone H3 incubated for 24 hrs by mitotic - imaging assay. The format is functional, cell-based. The settings on record: OVCAR-3, 24 h.
Data set [5] deals with OVCAR-3. Kind of data set: Antiproliferative activity against human OVCAR-3 cells by nuclear count assay. In kind it is functional, cell-based.

By IC50 is commonly meant the point on the concentration scale where inhibition reaches its midpoint. As usually defined, the EC50 is the concentration giving half of the maximal effect. For `CC(C)(C)NS(=O)(=O)c1cccc(NC(=O)c2ccc(NC(C)(C)CO)cc2N2CCC3(CC2)CC3)n1`, the IC50 in data set [1] was determined as 0.14 µM. The microsomal CLint at 0.5 µM in data set [2] is over 399 µL/min/mg; in data set [3], 189 µL/min/mg. For the same molecule, the EC50 in the data set with OVCAR-3 [4] stood at 0.028 µM; in the data set on OVCAR-3 [5], 0.023 µM.
Take `O=[N+]([O-])c1cc(Cl)ccc1S(=O)(=O)c1ccccc1`: the IC50 in data set [1] is 1.7 µM.
On to `CN(CCO)c1ccc(C(=O)Nc2cccc(S(=O)(=O)C3CCCC3)n2)c(N2CCC3(CC2)CC3)c1`, for which the IC50 in data set [1] is 0.253 µM. For the same molecule, the microsomal CLint at 0.5 µM in data set [2] and in data set [3] was over 399 µL/min/mg each time. Besides, the EC50 with OVCAR-3 [4] came to 0.449 µM; in the data set on OVCAR-3 [5], 0.358 µM.
In the case of `CC(C)(CO)S(=O)(=O)c1cccc(NC(=O)c2cccnc2N2CCC3(CC2)CC3)c1`, the IC50 in data set [1] was 31.6 µM. In addition, the microsomal CLint at 0.5 µM in data set [2] is over 399 µL/min/mg; in data set [3], 154 µL/min/mg. Also, the EC50 worked out at 45.9 µM in the data set on OVCAR-3 [4] and 31.2 µM with OVCAR-3 [5].
As to `CC1(C)CCN(c2ncccc2C(=O)Nc2cccc(S(=O)(=O)C3CCCC3)c2)CC1`, the IC50 in data set [1] was 1.25 µM. For the same molecule, the microsomal CLint at 0.5 µM in data set [2] and in data set [3] was over 399 µL/min/mg in each case. In addition, the EC50 in the data set on OVCAR-3 [4] was determined as 2.72 µM; in the data set on OVCAR-3 [5] it was 2.14 µM.
For the molecule `O=C(Nc1cccc(C2(C(F)(F)F)N=N2)c1)c1ccc(NS(=O)(=O)CCO)nc1N1CCC2(CC1)CC2`, the IC50 in data set [1] is 0.032 µM.
On to `O=C(Nc1cccc(S(=O)(=O)C2CCCC2)c1)c1cccnc1N1CCC(F)(F)CC1`, for which the 50% inhibitory concentration (IC50) in data set [1] turned out to be 5.31 µM. Also, the microsomal CLint at 0.5 µM in data set [2] and in data set [3] was over 399 µL/min/mg in each case. Further, the EC50 in the data set with OVCAR-3 [4] is 4.63 µM; in the data set on OVCAR-3 [5] it was 4.78 µM.
`CC(C)(CO)Nc1ccc(C(=O)Nc2cccc(S(=O)(=O)NC3CCCC3)n2)c(N2CCC3(CC2)CC3)c1`: the IC50 in data set [1] was found to be 0.08 µM. For the same molecule, the microsomal CLint at 0.5 µM in data set [2] and in data set [3] was over 399 µL/min/mg each time. Moreover, the EC50 in the data set with OVCAR-3 [4] was determined as 0.048 µM; with OVCAR-3 [5] it was 0.032 µM.
With `COc1ccc(C(=O)Nc2cccc(S(=O)(=O)C3CCCC3)n2)c(N2CCC3(CC2)CC3)c1`, in data set [1], the IC50 amounted to 0.36 µM. The microsomal CLint at 0.5 µM in data set [2] and in data set [3] was over 399 µL/min/mg throughout. The EC50 in the data set on OVCAR-3 [4] amounted to 2.66 µM; in the data set on OVCAR-3 [5], 2.35 µM.
As to `CC(C)(O)CNc1ccc(C(=O)Nc2cccc(S(=O)(=O)C3CCCC3)n2)c(N2CCC3(CC2)CC3)c1`, the IC50 in data set [1] came to 0.165 µM. Further, the microsomal CLint at 0.5 µM in data set [2] and in data set [3] was over 399 µL/min/mg in each case. In addition, the EC50 was determined as 0.228 µM in the data set with OVCAR-3 [4] and 0.229 µM in the data set on OVCAR-3 [5].
Regarding `CC(C)(C)NS(=O)(=O)c1cccc(NC(=O)c2ccc(NC(C)(C)CO)nc2N2CCC3(CC2)CC3)n1`, the IC50 in data set [1] is 0.081 µM. Moreover, the microsomal CLint at 0.5 µM in data set [2] and in data set [3] was over 399 µL/min/mg in each case. Also, the EC50 with OVCAR-3 [4] came out at 0.043 µM; in the data set on OVCAR-3 [5] it was 0.042 µM.
For `CC(C)S(=O)(=O)c1cccc(NC(=O)c2cccnc2N2CCC3(CC2)CC3)c1`, the IC50 in data set [1] came to 3.15 µM. The results for the microsomal CLint at 0.5 µM in data set [2] and in data set [3] were over 399 µL/min/mg and 375 µL/min/mg, respectively. Moreover, the EC50 with OVCAR-3 [4] was found to be 4.29 µM; with OVCAR-3 [5] it was 4.48 µM.
For the molecule `O=C(Nc1cccc(S(=O)(=O)N2CCCC2)c1)c1cccnc1N1CCC2(CC1)CC2`, in data set [1], the IC50 worked out at 1.83 µM. For the same molecule, the microsomal CLint at 0.5 µM in data set [2] and in data set [3] was over 399 µL/min/mg throughout. The EC50 with OVCAR-3 [4] amounted to 5.46 µM; in the data set on OVCAR-3 [5], 4.42 µM.
On to `O=C(Nc1cccc(S(=O)(=O)C2CCCC2)n1)c1ccc(NCCO)cc1N1CCC2(CC1)CC2`, for which the IC50 in data set [1] is 0.092 µM. Further, the microsomal CLint at 0.5 µM in data set [2] and in data set [3] was over 399 µL/min/mg in each case. The EC50 in the data set with OVCAR-3 [4] was determined as 0.177 µM; in the data set with OVCAR-3 [5], 0.117 µM.
For the molecule `O=C(Nc1cccc(S(=O)(=O)C2COC2)c1)c1cccnc1N1CCC2(CC1)CC2`, in data set [1], the IC50 is 8.88 µM. Besides, the microsomal CLint at 0.5 µM turned out to be 385 µL/min/mg in data set [2] and 183 µL/min/mg in data set [3]. The EC50 was determined as 14.8 µM with OVCAR-3 [4] and 12.6 µM in the data set on OVCAR-3 [5].
